Measured values reported in US6900217B2, “Substituted 6,5-hetero-bicyclic derivatives” (Pfizer Inc, priority 1996, dated 2005).

CCC(CC)Nc1c(Br)c(CBr)nc2c1nnn2-c1c(C)cc(C)cc1C [Example 6, [6-Bromo-5-bromomethyl-3-(2,4,6-trimethyl-phenyl)-3H-[1,2,3]triazolo[4,5-b]pyridin-7-yl]-(1-ethyl-propyl)-amine]
melting point: 123 to 125 °C
